ChEMBL document CHEMBL1201862, “PubChem BioAssay data set” (2004)
The source made the active and inactive calls.

Experiments:
Hexokinase = target: T1, Hexokinase (Trypanosoma brucei, UniProt Q38C41); test: Confirmation assay for inhibitors of Trypanosoma brucei hexokinase 1-Analogue-first series. [Related pubchem assays (depositor defined):AID1430, AID1632, AID2516, AID2560, AID2579, AID2600, AID449725, AID492951]; type: functional
T1 sequence (Q38C41 whole entry): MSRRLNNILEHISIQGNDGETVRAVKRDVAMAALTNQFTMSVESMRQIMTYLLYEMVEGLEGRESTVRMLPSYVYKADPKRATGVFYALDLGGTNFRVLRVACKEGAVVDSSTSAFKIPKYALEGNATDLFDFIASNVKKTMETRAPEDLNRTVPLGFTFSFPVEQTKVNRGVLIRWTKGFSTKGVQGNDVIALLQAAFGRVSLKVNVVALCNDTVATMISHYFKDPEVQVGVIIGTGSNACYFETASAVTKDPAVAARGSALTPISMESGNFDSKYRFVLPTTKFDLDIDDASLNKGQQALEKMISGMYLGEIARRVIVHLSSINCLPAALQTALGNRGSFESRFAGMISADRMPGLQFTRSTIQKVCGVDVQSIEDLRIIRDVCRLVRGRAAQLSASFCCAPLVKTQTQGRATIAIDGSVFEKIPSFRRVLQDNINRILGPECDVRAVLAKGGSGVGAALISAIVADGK

[1] = target: T2, Short transient receptor potential channel 4 (Mus musculus, UniProt Q9QUQ5); test: potentiation of DAMGO-evoked TRPC4 calcium signal – cell-based, HEK293 TRPC4/mu-opioid, Fluo-4 calcium, EC20 DAMGO, dose response (AID 434941); type: functional
T2 sequence (Q9QUQ5 whole entry): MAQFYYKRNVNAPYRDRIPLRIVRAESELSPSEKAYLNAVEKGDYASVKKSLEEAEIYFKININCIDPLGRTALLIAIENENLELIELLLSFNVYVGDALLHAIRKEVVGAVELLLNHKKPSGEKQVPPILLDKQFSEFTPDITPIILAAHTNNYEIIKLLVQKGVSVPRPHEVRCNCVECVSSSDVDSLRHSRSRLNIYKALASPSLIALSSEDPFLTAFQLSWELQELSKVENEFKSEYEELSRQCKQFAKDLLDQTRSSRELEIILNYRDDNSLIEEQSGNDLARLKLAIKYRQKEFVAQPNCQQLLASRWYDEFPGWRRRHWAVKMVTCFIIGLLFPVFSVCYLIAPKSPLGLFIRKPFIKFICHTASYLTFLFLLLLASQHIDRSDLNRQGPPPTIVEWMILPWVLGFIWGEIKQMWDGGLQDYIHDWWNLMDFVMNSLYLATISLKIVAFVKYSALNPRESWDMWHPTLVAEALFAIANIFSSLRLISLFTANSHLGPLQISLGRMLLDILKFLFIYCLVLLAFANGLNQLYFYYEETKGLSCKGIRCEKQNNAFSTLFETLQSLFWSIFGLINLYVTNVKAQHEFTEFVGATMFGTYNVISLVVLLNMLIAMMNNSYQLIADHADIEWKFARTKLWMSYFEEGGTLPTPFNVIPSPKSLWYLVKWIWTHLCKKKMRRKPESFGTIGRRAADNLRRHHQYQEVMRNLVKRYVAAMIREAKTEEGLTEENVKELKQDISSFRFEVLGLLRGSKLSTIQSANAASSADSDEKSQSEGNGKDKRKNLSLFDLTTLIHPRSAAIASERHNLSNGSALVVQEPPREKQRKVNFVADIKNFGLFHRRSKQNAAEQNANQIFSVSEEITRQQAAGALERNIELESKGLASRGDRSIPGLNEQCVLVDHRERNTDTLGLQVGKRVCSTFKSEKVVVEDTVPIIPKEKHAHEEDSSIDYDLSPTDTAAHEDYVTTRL

[2] = target: T2, Short transient receptor potential channel 4; test: calcium entry via TRPC4 opening agents – cell-based, HEK293 TRPC4/mu-opioid, Fluo-4 calcium, dose response (AID 434937); type: functional
[3] = target: T3, Corticotropin-releasing factor receptor 2/Corticotropin-releasing factor-binding protein (Homo sapiens, UniProt P24387+Q13324); test: activators of CRF receptor 2 with binding protein – uHTS hits, confirmation (AID 602473); type: functional; conditions: read-out: EC50_Mean
T3 sequence (Q13324 whole entry): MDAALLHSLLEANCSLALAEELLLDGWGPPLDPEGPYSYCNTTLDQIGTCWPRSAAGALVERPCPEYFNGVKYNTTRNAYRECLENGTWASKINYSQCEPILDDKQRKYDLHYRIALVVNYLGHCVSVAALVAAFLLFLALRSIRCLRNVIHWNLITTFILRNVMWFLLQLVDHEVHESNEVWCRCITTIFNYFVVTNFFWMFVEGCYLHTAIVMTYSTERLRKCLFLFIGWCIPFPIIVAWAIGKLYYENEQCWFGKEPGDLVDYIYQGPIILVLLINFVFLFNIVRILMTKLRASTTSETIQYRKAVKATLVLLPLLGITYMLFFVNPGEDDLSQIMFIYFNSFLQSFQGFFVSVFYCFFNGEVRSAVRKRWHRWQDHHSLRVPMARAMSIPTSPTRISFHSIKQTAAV
T3 sequence (P24387 whole entry): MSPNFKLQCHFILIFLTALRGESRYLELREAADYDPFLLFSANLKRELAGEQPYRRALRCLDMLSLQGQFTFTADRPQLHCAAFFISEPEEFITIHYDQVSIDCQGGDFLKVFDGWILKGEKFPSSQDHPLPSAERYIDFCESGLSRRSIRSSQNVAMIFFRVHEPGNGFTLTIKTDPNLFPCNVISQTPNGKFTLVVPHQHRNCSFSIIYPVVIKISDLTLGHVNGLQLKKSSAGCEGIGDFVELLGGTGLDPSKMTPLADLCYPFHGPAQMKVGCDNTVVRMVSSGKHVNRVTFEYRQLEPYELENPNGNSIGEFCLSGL

X-box-binding protein 1 = target: T4, X-box-binding protein 1 (Homo sapiens, UniProt P17861); type: functional, Cricetulus griseus;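 note: confirmatory dose-response counter-screen serving a CHOP assay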
T4 sequence (P17861 whole entry): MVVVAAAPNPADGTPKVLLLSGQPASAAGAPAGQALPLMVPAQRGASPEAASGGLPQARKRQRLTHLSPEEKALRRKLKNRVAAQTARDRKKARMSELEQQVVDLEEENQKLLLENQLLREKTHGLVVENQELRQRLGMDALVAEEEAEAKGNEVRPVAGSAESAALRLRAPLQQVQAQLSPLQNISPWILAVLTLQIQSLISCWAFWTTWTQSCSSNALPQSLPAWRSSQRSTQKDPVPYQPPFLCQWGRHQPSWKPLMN

[4] = target: DNA damage-inducible transcript 3 protein (Mus musculus, UniProt P35639); type: functional, Cricetulus griseus
H9c2 = test: cells; type: functional, cell-based; conditions: Rattus norvegicus, H9c2, Myocardium;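 note: confirmatory concentration-response retest of ultra-high-throughput screening hits for modulation of myocardial damage; cell death induced by hydrogen peroxide oxidative stress; compound pretreatment for 60 min then peroxide exposure for 2 h; potency is for protecting the cells against peroxide damage rather than for killing them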
[5] = HEK-293T viability loss after treatment – luminescence, T-cell screen hits, cytotoxicity control for TCR NF-kB inhibitor project, dose response (AID 489026); type: functional, cell-based;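 note: cells exposed to compound about 14 hours before the viability readout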
[6] = target: Heat shock protein HSP 90-alpha (Homo sapiens, UniProt P07900); type: functional, organism-based
[7] = target: T5, Voltage-gated N-type calcium channel alpha-1B subunit/Amyloid beta A4 precursor protein-binding family A member 1 (Homo sapiens, UniProt Q00975+Q02410); type: protein assay
[8] = target: T5, Voltage-gated N-type calcium channel alpha-1B subunit/Amyloid beta A4 precursor protein-binding family A member 1; type: protein assay; remark: listed apart in the source
Saccharomyces cerevisiae = test: S. cerevisiae Caspase-1/ASC signal blockers IC50, NALP1 inhibitor project selectivity test (AID 488863); type: functional, organism-based
[9] = Luminescence Cell-Based Dose Confirmation HTS to Identify Inhibitors of Platelet Dense Granule Release. [Related pubchem assays: 1663 (Primary HTS), 1678 (Summary of Project)]; type: functional
[10] = target: T6, NACHT, LRR and PYD domains-containing protein 1 (Homo sapiens, UniProt Q9C000); test: NALP1 inhibitors in yeast, dose response, luminescent (AID 488860); type: functional
T6 sequence (Q9C000 whole entry): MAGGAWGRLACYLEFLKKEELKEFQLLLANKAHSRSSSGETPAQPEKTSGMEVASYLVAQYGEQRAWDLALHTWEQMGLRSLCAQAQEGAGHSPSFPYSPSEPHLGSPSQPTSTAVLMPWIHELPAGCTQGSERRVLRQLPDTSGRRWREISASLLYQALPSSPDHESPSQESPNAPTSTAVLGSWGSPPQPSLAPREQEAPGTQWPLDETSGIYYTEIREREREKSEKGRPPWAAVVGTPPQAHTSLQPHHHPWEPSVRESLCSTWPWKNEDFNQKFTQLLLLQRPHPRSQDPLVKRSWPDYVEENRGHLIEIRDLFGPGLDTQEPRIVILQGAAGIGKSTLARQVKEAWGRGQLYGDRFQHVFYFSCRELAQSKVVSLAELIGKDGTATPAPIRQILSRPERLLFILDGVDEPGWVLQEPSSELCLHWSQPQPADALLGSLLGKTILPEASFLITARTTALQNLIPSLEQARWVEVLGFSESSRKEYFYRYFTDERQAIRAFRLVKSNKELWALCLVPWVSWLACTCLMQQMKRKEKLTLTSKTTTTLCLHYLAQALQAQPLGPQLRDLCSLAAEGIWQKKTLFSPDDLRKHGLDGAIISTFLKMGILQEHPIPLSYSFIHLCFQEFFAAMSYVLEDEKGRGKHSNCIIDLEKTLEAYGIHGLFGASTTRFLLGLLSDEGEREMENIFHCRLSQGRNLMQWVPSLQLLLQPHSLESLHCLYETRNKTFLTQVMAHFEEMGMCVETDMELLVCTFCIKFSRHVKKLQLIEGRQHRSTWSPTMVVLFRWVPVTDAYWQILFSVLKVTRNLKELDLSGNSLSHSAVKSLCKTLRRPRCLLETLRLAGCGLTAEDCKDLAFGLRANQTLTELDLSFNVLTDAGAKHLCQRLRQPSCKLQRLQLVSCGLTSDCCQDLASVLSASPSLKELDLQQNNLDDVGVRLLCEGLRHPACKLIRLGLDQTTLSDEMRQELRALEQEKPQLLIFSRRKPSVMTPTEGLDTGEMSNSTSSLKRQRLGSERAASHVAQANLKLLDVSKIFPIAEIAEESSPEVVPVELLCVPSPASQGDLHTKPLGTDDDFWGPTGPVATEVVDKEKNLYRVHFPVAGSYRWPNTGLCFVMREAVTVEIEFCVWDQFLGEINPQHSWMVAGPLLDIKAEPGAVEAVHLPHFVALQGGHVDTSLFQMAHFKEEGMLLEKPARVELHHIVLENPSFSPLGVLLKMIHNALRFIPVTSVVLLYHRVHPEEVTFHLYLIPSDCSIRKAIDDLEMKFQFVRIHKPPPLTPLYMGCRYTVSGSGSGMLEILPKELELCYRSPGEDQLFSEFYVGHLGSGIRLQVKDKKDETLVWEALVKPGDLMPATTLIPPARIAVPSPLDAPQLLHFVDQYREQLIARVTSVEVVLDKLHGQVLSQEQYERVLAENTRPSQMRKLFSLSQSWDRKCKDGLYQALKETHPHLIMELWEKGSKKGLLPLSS

[11] = target: Luciferin 4-monooxygenase (Photinus pyralis, UniProt P08659); test: inhibition of purified Photinus pyralis luciferase – biochemical, luminescence, dose response (AID 1891)
[12] = target: T7, Heat shock factor protein 1 (Mus musculus, UniProt P38532); test: decrease of HSF1-responsive luciferase luminescence – cell-based, NIH3T3, dose retest, confirmation (AID 2382); type: functional;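 note: NIH3T3 fibroblasts with HSF1-driven luciferase reporter stressed by proteasome inhibitor MG132; luminescence from HSF1-driven luciferase expression after 8 hours of MG132 stress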
T7 sequence (P38532 whole entry): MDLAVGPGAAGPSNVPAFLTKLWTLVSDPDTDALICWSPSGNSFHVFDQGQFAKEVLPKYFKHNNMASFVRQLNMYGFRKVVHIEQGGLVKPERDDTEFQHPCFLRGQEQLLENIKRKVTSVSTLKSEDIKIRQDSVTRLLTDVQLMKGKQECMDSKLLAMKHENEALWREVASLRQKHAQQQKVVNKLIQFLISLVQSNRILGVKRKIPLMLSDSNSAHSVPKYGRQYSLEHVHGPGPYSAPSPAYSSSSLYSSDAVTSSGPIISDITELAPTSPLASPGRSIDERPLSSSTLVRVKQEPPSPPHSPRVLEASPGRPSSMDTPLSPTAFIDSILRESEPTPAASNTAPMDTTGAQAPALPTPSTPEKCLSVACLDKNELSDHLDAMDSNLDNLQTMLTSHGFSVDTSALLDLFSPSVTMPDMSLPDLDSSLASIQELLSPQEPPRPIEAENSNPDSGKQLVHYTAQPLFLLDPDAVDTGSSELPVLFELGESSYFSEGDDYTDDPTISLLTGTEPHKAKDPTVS

T5 sequence (Q00975 whole entry): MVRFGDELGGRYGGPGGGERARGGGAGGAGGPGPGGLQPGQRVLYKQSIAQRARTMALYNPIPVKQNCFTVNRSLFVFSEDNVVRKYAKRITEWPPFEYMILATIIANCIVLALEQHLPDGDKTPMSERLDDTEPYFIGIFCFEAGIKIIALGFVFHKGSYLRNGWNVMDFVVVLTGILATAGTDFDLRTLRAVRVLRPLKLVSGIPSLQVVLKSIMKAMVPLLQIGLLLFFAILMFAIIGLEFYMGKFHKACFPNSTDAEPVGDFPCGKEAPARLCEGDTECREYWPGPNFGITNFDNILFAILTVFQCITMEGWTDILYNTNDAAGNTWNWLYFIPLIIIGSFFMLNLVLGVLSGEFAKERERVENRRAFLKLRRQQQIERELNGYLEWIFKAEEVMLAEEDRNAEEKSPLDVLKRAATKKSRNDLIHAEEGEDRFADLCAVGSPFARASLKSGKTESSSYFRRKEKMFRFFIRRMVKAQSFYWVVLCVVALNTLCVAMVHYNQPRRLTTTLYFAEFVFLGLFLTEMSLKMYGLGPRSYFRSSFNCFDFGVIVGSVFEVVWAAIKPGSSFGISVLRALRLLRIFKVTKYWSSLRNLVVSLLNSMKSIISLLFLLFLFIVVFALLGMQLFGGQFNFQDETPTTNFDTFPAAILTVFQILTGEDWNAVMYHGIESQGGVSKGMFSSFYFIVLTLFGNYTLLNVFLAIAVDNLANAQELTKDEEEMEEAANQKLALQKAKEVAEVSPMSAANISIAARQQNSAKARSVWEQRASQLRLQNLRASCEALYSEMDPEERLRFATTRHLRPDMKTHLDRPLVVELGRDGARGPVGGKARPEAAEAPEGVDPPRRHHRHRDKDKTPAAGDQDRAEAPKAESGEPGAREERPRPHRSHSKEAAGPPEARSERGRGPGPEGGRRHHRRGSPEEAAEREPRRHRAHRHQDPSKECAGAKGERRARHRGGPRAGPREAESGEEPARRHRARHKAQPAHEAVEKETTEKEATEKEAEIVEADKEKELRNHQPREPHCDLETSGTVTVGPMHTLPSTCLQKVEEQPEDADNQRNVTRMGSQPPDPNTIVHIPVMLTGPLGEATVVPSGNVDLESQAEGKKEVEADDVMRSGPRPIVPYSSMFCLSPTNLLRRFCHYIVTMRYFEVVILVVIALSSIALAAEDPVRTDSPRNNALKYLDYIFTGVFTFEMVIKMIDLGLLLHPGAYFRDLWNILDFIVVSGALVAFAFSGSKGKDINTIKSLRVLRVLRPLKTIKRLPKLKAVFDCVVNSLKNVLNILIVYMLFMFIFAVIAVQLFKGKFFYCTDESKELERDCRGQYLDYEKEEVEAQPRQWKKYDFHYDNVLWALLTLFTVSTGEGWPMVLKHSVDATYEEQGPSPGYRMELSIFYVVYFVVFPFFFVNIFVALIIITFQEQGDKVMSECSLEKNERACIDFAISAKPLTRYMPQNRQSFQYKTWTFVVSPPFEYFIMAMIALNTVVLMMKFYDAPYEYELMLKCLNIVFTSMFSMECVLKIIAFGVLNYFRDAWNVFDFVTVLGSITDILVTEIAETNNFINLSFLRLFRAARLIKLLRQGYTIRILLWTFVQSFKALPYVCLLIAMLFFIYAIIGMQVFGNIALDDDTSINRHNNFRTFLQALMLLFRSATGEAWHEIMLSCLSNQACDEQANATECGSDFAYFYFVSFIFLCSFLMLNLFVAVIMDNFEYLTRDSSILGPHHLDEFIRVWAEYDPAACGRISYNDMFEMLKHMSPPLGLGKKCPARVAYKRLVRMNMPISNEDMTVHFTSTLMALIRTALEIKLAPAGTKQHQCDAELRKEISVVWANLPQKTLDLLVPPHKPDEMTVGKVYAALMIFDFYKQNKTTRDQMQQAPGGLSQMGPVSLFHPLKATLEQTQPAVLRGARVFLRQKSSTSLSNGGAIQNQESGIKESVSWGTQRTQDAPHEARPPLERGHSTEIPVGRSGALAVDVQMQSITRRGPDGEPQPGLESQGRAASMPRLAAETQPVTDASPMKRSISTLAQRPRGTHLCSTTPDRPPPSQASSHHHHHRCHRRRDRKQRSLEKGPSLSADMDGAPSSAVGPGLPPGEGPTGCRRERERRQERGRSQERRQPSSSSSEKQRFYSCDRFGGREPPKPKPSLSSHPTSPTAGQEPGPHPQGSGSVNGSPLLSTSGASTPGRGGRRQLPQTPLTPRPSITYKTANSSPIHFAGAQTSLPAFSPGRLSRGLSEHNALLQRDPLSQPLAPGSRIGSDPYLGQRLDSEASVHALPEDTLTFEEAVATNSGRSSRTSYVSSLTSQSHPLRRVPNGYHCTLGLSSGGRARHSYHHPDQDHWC
T5 sequence (Q02410 whole entry): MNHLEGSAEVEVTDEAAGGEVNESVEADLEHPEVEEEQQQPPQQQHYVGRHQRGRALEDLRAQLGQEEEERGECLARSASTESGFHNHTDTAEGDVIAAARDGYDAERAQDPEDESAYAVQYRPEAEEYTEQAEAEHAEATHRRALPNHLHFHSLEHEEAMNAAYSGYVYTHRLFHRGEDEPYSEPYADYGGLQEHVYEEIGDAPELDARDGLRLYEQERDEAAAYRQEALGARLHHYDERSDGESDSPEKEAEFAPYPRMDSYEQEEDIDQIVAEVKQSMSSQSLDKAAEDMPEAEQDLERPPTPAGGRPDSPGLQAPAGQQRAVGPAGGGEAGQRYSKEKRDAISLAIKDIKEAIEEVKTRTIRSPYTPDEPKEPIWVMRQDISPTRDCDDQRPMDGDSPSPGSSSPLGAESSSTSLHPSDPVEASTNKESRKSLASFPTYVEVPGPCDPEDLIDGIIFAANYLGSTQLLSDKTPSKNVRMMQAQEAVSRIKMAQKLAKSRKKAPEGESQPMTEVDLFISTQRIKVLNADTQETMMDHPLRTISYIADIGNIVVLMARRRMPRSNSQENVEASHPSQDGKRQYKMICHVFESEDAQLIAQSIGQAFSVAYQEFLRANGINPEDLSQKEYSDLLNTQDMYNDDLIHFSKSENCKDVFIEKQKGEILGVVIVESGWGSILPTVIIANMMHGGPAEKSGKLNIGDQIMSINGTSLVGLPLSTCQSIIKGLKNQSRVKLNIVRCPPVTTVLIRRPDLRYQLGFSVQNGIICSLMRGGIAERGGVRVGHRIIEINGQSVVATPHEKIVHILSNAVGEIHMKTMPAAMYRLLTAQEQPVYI
DNA damage-inducible transcript 3 protein, sequence (P35639 whole entry): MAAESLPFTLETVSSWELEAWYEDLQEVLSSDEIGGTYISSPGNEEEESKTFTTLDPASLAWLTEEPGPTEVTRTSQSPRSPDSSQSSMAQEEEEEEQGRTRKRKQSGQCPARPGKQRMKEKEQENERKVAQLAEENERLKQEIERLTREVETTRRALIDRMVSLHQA
Luciferin 4-monooxygenase, sequence (P08659 whole entry): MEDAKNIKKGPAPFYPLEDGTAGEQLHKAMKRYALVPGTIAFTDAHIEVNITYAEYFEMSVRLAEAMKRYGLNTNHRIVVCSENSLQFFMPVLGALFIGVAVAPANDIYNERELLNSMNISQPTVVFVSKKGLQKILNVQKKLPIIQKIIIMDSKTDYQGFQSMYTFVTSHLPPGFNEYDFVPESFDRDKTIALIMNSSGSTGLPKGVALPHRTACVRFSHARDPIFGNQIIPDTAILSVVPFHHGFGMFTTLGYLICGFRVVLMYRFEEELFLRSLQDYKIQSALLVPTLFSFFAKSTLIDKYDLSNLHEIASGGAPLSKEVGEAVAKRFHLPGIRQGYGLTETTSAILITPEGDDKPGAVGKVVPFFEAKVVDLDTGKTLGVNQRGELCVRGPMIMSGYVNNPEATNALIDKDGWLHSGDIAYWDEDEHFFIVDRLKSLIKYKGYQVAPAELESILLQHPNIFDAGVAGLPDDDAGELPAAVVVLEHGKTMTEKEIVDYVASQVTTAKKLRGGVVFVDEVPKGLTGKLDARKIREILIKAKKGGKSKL

O=c1c2cc(Br)ccc2[s+]([O-])n1-c1ccccc1 (stereo not given)
IC50 (Hexokinase): > 25 µM (inactive)

COc1ccc(/N=C(\C)C2=C(O)C(=O)N(CCO)C2c2ccc(Br)cc2)cc1 (stereo not given)
EC50 [1]: 0.38 µM (active) | EC50 [2]: 5.96 µM (active)

CC(C)c1c(O)nc(SCCN(C)C)nc1O
EC50 [1]: 0.75 µM (active)

O=C(Cn1sc2ccccc2c1=O)Nc1cccc(I)c1
IC50 (Hexokinase): > 25 µM (inactive)

O=C(O)CCNc1nc(-c2ccccc2)c2cc(Br)ccc2n1
EC50 [1]: 0.13 µM (active) | EC50 [3]: 2.38 µM (active)

CCOC(=O)Cc1csc(NC(=O)NC2(C(F)(F)F)Oc3ccc(Cl)cc3O2)n1 (stereo not given)
Absolute IC50 (XBP1) (X-box-binding protein 1): 10 µM | Absolute IC50 (CHOP) [4]: 10 µM | IC50 (H9c2): > 79 µM (inactive)

COC(=O)c1ccccc1NC(=O)CSc1nc(-c2ccco2)cc(C(F)(F)F)n1
IC50 [5]: > 80 µM (inactive)

COC(=O)/C=C\C(=O)Nc1cccc([N+](=O)[O-])c1
AC50 [6]: 3.67 µM (active) | IC50 [7]: 10.1 µM (active) | IC50 [8]: 2.1 µM (active) | IC50 (Saccharomyces cerevisiae): 7.1 µM (active) | EC50 [9]: 9.34 µM (active) | Absolute IC50 (CHOP) [4]: 10 µM | IC50 [10]: 10.9 µM (active) | EC50 [11]: > 112 µM (not active) | EC50 [12]: > 195 µM (not active)
